Experiment [1] relates to Crabgrass (CG). The experiment is described as follows: Pre-emergence herbicide test. The format is in vivo, Digitaria sanquinalis. As to conditions: Digitaria sanguinalis, pre-emergence, 336 h; 8 lb/acre; two weeks after treatment. A digest of the protocol:
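Crabgrass (Digitaria sanquinalis) was surface seeded in 3' plastic pots of potting soil, covered with screened soil, and watered by sub-irrigation in greenhouse trays. Pots were seeded one day before spraying in a hood with a moving belt and fixed nozzle. Plants stayed in the greenhouse on sub-irrigation, and pre-emergence control was rated visually two weeks after treatment.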

The test system of experiment [2] is Yellow foxtail grass (YF). The experiment is described as follows: Pre-emergence herbicide test. It counts as in vivo, Setaria glauca. Conditions: Setaria, 336 h, 8 lb/acre, two weeks after treatment. Summed up:
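Visual rating of injury/control made two weeks after a pre-emergence spray of 8 or 4 lbs active per acre (38 gal/acre) onto pots seeded the previous day. Greenhouse watering by sub-irrigation only.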

Experiment [3] has as its system Johnson grass (JG). The experiment is described as follows: Pre-emergence herbicide test. It counts as in vivo, Sorgum helepense. As to conditions: Sorghum halepense, 336 h, 8 lb/acre, two weeks after treatment. Summed up:
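Visual injury or control rating two weeks post-treatment, after pre-emergence spray of 8 or 4 lbs active per acre (38 gal/acre) onto pots sown the previous day. Greenhouse watering by sub-irrigation only.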

The subject of experiment [4] is Barnyard grass (BG). The experiment is described as follows: Pre-emergence herbicide test. The format is in vivo. Conditions: Echinochloa crus-galli, 336 h, 8 lb/acre, two weeks after treatment. A digest of the protocol:
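Greenhouse pre-emergence spray test: pots seeded one day before treatment received compound at rates of 8 or 4 lb/acre (38 gal/acre). Visual injury/control scores for Echinochloa crus-galli taken at two weeks, with watering by sub-irrigation only.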

For experiment [5], the system named is Turnip (TP). As to the kind of experiment: Pre-emergence herbicide test. As to conditions: Brassica rapa, pre-emergence, 336 h; 8 lb/acre; two weeks after treatment. The format is in vivo, Brassica sp. Summed up:
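In this pre-emergence greenhouse test, turnip was seeded on the surface of potting soil in 3' plastic pots, lightly covered with screened soil, and watered from below. One day later the pots were sprayed in a belt-fed spray hood. Watering continued only by sub-irrigation, and percent control was visually scored two weeks after treatment.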

The test system of experiment [6] is Cotton (CT). The experiment is described as follows: Pre-emergence herbicide test. As to conditions: Gossypium hirsutum, 336 h, 8 lb/acre, two weeks after treatment. It counts as in vivo, Gossypium hirsutum var. DPL smooth leaf. Summed up:
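Visual injury/control ratings were taken at two weeks post-spray. Pots seeded a day earlier received compound pre-emergence at 8 lbs/acre, or 4 lbs/acre, in a 38 gallon/acre spray volume, and were then held in the greenhouse, watered only from below.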

Experiment [7] relates to Corn (CN). As to the kind of experiment: Pre-emergence herbicide test. The format is in vivo. Conditions: Zea mays, 336 h, 8 lb/acre, two weeks after treatment. A digest of the protocol:
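Visual injury/control ratings were made 2 weeks post-spray on corn pots seeded (4 seeds, seed-diameter depth) the day before treatment. Application was a belt-hood spray of 38 gal/acre delivering 8 lbs active per acre, with a 4 lbs/acre rate also formulated. Watering was by sub-irrigation throughout.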

In experiment [8] the test system is Bean (BN). The experiment is described as follows: Pre-emergence herbicide test. It counts as in vivo, Phaseolus vulgaris var. Black Valentine. Conditions: Phaseolus vulgaris, 336 h, 8 lb/acre, two weeks after treatment. Summed up:
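Visual injury/control ratings were taken two weeks post-spray on sub-irrigated Phaseolus vulgaris var. Black Valentine. Pots were sown a day before treatment. Pre-emergence spray delivered 8 lbs actual compound per acre (or 4 lbs/acre) at 38 gallons per acre.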

Experiment [9] relates to Crabgrass (CG). As to the kind of experiment: Post-emergence herbicide test. It counts as in vivo, Digitaria sanquinalis. Conditions: Digitaria sanguinalis, post-emergence, 336 h; 8 lb/acre; two weeks after treatment. Summed up: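 Crabgrass (Digitaria sanquinalis) was surface seeded individually in 3' plastic pots of potting soil, covered with screened soil, and watered by sub-irrigation in greenhouse trays. Planting was staggered so seedlings reached the target stage together. Post-emergence sprays were applied in a hood with a removable belt and fixed nozzle, and control was visually rated two weeks after treatment.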

In experiment [10] the test system is Yellow foxtail grass (YF). The experiment is described as follows: Post-emergence herbicide test. The format is in vivo, Setaria glauca. As to conditions: Setaria, 336 h, 8 lb/acre, two weeks after treatment. A digest of the protocol:
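Visual rating of injury/control made 2 weeks post-spray. Seedlings at a uniform growth stage in soil-filled pots received a hood spray of 8 lbs/acre active compound, 38 gallons/acre volume, with a 4 lbs/acre rate also formulated. Watering was by sub-irrigation only.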

Experiment [11] has as its system Johnson grass (JG). The experiment is described as follows: Post-emergence herbicide test. As to conditions: Sorghum halepense, 336 h, 8 lb/acre, two weeks after treatment. The format is in vivo, Sorgum helepense. A digest of the protocol:
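Visual injury or control scores taken 2 weeks after a post-emergence spray of pot-grown plants. Application was 8 lbs/acre (or 4 lbs/acre) in 38 gal/acre. Plants were held in the greenhouse with sub-irrigation only.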

Experiment [12] has as its system Barnyard grass (BG). The experiment is described as follows: Post-emergence herbicide test. It counts as in vivo. Conditions: Echinochloa crus-galli, 336 h, 8 lb/acre, two weeks after treatment. Summed up:
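Greenhouse pot-grown barnyard grass seedlings sprayed post-emergence at 8 lbs active compound per acre (some at 4 lbs/acre) in 38 gallons per acre, then sub-irrigated. Injury or control rated visually two weeks after treatment.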

The test system of experiment [13] is Amaranth pigweed (PW). The experiment is described as follows: Post-emergence herbicide test. As to conditions: 336 h, 8 lb/acre, two weeks after treatment. The format is in vivo, Amaranthus retroflexus. A digest of the protocol:
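Visual injury or control ratings were made two weeks after spraying, with greenhouse watering by sub-irrigation only. Treatment was post-emergence, when pigweed seedlings had 1 or 2 true leaves, at 8 lbs active compound per acre (4 lbs/acre formulations also made) in a 38 gallons-per-acre spray volume.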

In experiment [14] the test system is Turnip (TP). The experiment is described as follows: Post-emergence herbicide test. It counts as in vivo, Brassica sp. As to conditions: Brassica rapa, post-emergence, 336 h; 8 lb/acre; two weeks after treatment. Summed up: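 A greenhouse post-emergence herbicide test on turnip. Seeds were sown on the surface of potting soil in 3' plastic pots, lightly covered with screened soil and watered from below. Planting was timed so seedlings had 1 or 2 true leaves above the cotyledons at spraying, done in a hood with a fixed nozzle. Control or injury was scored by eye after two weeks.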

Experiment [15] concerns Cotton (CT). As to the kind of experiment: Post-emergence herbicide test. The format is in vivo, Gossypium hirsutum var. DPL smooth leaf. As to conditions: Gossypium hirsutum, post-emergence, 336 h; 8 lb/acre; two weeks after treatment. A digest of the protocol: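 This greenhouse post-emergence test measured how well spray treatments controlled cotton. Seedlings of Gossypium hirsutum var. DPL smooth leaf, with expanded cotyledons and a first true leaf 1' in length, were sprayed with 50 ml formulations in a belt-fed spray hood. They were then returned to the greenhouse and watered only by sub-irrigation. Injury was scored visually as % control after two weeks.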

The test system of experiment [16] is Corn (CN). As to the kind of experiment: Post-emergence herbicide test. It counts as in vivo. Conditions: Zea mays, 336 h, 8 lb/acre, two weeks after treatment. A digest of the protocol: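 Greenhouse seedlings grown in potting soil and sprayed post-emergence at 8 lbs compound/acre (formulations also made for 4 lbs/acre) in 38 gallons/acre spray volume. Watering by sub-irrigation only. Injury or control rated visually two weeks after treatment.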

Experiment [17] relates to Bean (BN). As to the kind of experiment: Post-emergence herbicide test. It counts as in vivo, Phaseolus vulgaris var. Black Valentine. As to conditions: Phaseolus vulgaris, post-emergence, 336 h; 8 lb/acre; two weeks after treatment. Summed up: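 Bean seedlings (Phaseolus vulgaris var. Black Valentine) were grown in potting soil in 3' pots until the primary leaves expanded. They were then sprayed under a hood with a removable belt and fixed nozzle, using 50 ml formulations. Afterward they were returned to the greenhouse and watered only by sub-irrigation. Percent control was judged visually two weeks after treatment.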

For experiment [18], the system named is variety of crops and weed species. The experiment is described as follows: Pre- and post-emergence herbicide tests, overall assessment of Tables III-VI. Conditions: data of Tables III-VI. The format is in vivo. The method, then: All crop and weed species were planted individually in 3' plastic pots containing potting soil. Four seeds each of corn, cotton, and snapbeans were seeded to a depth equal to the diameter of the seed. All other species were surface seeded and sprinkled with screened soil in an amount sufficient to cover the seed. Immediately after planting, all pots were watered by sub-irrigation in greenhouse trays. Pots for the pre-emergence phase were seeded one day before treatment.
Compounds were tested at rates of application equivalent to 8 lbs. of actual compound per acre in a spray volume of 38 gallons per acre. Spray hood constants required to deliver the above volume are as follows:
Two weeks after treatment, pre- and post-emergence injury or control was visually rated, and the results were as shown in the following tables. Pre-emergence data are provided in TABLE III and post-emergence data are provided in TABLE IV, for compounds having the formula illustrated in TABLE I. Correspondingly, pre-emergence and post-emergence data, respectively, are set forth in TABLES V AND VI, for compounds having the formula illustrated in TABLE II.

Experiment [19] relates to Amaranth pigweed (PW). The experiment is described as follows: Pre-emergence herbicide test. The format is in vivo, Amaranthus retroflexus. Conditions: 336 h, 8 lb/acre, two weeks after treatment. A digest of the protocol: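 Visual injury or control ratings were made at two weeks on pre-emergence pots, sub-irrigated in the greenhouse. Seeds were sown a day before a hood spray delivering 8 lbs/acre (or 4 lbs/acre) of compound in 38 gallons per acre.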

Structures are written as SMILES.

Broadly, the pest or weed control is the degree to which the test organism was suppressed or injured, in per cent. Higher therefore signals a strong effect.

For the compound `CCNC(=O)Nc1nnc(C(F)(F)F)s1` [Example 9], the pest or weed control at 8966.8 g/ha worked out at 10% with Crabgrass (CG) [1]; 20% in [2]; 10% with Johnson grass (JG) [3]; 20% with Barnyard grass (BG) [4]; 10% in the experiment with Turnip (TP) [5]; 30% with Cotton (CT) [6]. Also, the pest or weed control at 8966.8 g/ha in the experiment with Corn (CN) [7] was 50%; in the experiment on Bean (BN) [8] it was 100%; in the experiment on Crabgrass (CG) [9], 60%; in experiment [10] it was 30%; in the experiment on Johnson grass (JG) [11] it was 80%; with Barnyard grass (BG) [12] it was 40%. Further, the pest or weed control at 8966.8 g/ha in the experiment with Amaranth pigweed (PW) [13] is 100%; in the experiment with Turnip (TP) [14], 60%; in the experiment with Cotton (CT) [15] it was 50%; in the experiment on Corn (CN) [16], 30%; in the experiment on Bean (BN) [17], 70%. Moreover, the “herbicidal effectiveness / selectivity, in words” value in experiment [18] is “more selective when applied to a certain crop or weed species”.

For the compound `O=C(Nc1ccc(Cl)cc1)Nc1nnc(C(F)(F)F)s1` [Example 15], the pest or weed control at 8966.8 g/ha was 10% with Crabgrass (CG) [1]; 10% in experiment [2]; 10% in the experiment with Johnson grass (JG) [3]; 10% in the experiment with Barnyard grass (BG) [4]; 10% in the experiment with Turnip (TP) [5]; 80% with Cotton (CT) [6]. For the same compound, the pest or weed control at 8966.8 g/ha with Corn (CN) [7] turned out to be 10%; with Bean (BN) [8], 30%; with Crabgrass (CG) [9], 30%; in [10], 20%; with Johnson grass (JG) [11], 20%; in the experiment on Barnyard grass (BG) [12], 20%. The pest or weed control at 8966.8 g/ha was 100% in the experiment on Amaranth pigweed (PW) [13]; 50% in the experiment on Turnip (TP) [14]; 60% in the experiment with Cotton (CT) [15]; 20% in the experiment on Corn (CN) [16]; 40% in the experiment on Bean (BN) [17]. In addition, in experiment [18], the “herbicidal effectiveness / selectivity, in words” value was “more selective when applied to a certain crop or weed species”.

Consider `O=C(Nc1ccc(Cl)c(Cl)c1)Nc1nnc(C(F)(F)F)s1` [Example 16], for which the pest or weed control at 8966.8 g/ha with Crabgrass (CG) [1] is 10%; in [2], 10%; in the experiment with Johnson grass (JG) [3], 10%; with Barnyard grass (BG) [4] it was 10%; with Turnip (TP) [5] it was 30%; in the experiment on Cotton (CT) [6] it was 30%. In addition, the pest or weed control at 8966.8 g/ha with Corn (CN) [7] stood at 30%; with Bean (BN) [8], 80%; in the experiment on Crabgrass (CG) [9] it was 20%; in experiment [10], 20%; in the experiment on Johnson grass (JG) [11] it was 20%; with Barnyard grass (BG) [12] it was 20%. Besides, the pest or weed control at 8966.8 g/ha in the experiment on Turnip (TP) [14] turned out to be 40%; in the experiment on Cotton (CT) [15], 20%; in the experiment with Corn (CN) [16] it was 20%; in the experiment on Bean (BN) [17] it was 40%. Also, the “herbicidal effectiveness / selectivity, in words” value in [18] was “more selective when applied to a certain crop or weed species”.

Regarding `Cc1nnc(NC(=O)N(C)C)s1` [Example 19], the pest or weed control at 8966.8 g/ha with Crabgrass (CG) [1] is 10%; in the experiment with Johnson grass (JG) [3] it was 20%; with Barnyard grass (BG) [4], 10%; with Amaranth pigweed (PW) [19], 10%; in the experiment with Turnip (TP) [5] it was 20%; in the experiment with Cotton (CT) [6] it was 30%. Besides, the pest or weed control at 8966.8 g/ha in the experiment with Corn (CN) [7] was found to be 80%; in the experiment with Bean (BN) [8] it was 80%; in the experiment with Crabgrass (CG) [9], 20%; in experiment [10], 20%; with Johnson grass (JG) [11] it was 20%; in the experiment with Barnyard grass (BG) [12], 10%. For the same compound, the pest or weed control at 8966.8 g/ha with Amaranth pigweed (PW) [13] stood at 40%; in the experiment with Turnip (TP) [14], 50%; with Cotton (CT) [15], 40%; in the experiment on Corn (CN) [16], 20%; in the experiment with Bean (BN) [17] it was 50%. In addition, in experiment [18], the “herbicidal effectiveness / selectivity, in words” value is given as “The converse of this relationship”.

Source of the values: patent publication US4175081A, “5-Substituted thiadiazole ureas” (priority 1977, dated 1979).
